Results: PubChem BioAssay AID330 (DTP/NCI, 2004)
Several values for one entry are separate records, joined by “and”; a condition that tells them apart may be missing. Equal values may be shown once. Toxic doses and inconclusive results are not listed. Rule for the calls: active = survival T/C of 150% or more; inactive = T/C below 125% in these data.

Test system: P388 leukemia ip, CD2F1 mice, survival T/C
Experiment: NCI In Vivo Anticancer Drug Screen. Data for tumor model P388 Leukemia (intraperitoneal) in CD2F1 (CDF1) mice
Conditions: endpoint: median survival time, higher = longer survival
In short: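 Mice carrying the transplanted tumor received test compound or vehicle. Survival was recorded in each group, and the value is the treated-group measurement divided by that of the vehicle-treated control group.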

[1] = dose: 100.0 mg/kg/injection, schedule: Q01DX001 (ip), vehicle: Klucel (hydroxypropylcellulose) (HPC)
[2] = dose: 200.0 mg/kg/injection, schedule: Q01DX001 (ip), vehicle: Klucel (hydroxypropylcellulose) (HPC)
[3] = dose: 400.0 mg/kg/injection, schedule: Q01DX001 (ip), vehicle: Klucel (hydroxypropylcellulose) (HPC)
[4] = dose: 100.0 mg/kg/injection, schedule: Q01DX005 (ip), vehicle: saline with Tween-80
[5] = dose: 60.0 mg/kg/injection, schedule: Q01DX005 (ip), vehicle: saline with Tween-80
[6] = dose: 50.0 mg/kg/injection, schedule: Q01DX009 (ip), vehicle: saline
[7] = dose: 100.0 mg/kg/injection, schedule: Q01DX009 (ip), vehicle: saline
[8] = dose: 200.0 mg/kg/injection, schedule: Q01DX009 (ip), vehicle: saline
[9] = dose: 120.0 mg/kg/injection, schedule: Q01DX005 (ip), vehicle: saline with Tween-80
[10] = dose: 240.0 mg/kg/injection, schedule: Q01DX005 (ip), vehicle: saline with Tween-80
[11] = dose: 100.0 mg/kg/injection, schedule: Q04DX003 (ip), vehicle: saline with Tween-80
[12] = dose: 50.0 mg/kg/injection, schedule: Q01DX009 (ip), vehicle: Klucel (hydroxypropylcellulose) (HPC)
[13] = dose: 100.0 mg/kg/injection, schedule: Q01DX009 (ip), vehicle: Klucel (hydroxypropylcellulose) (HPC)
[14] = dose: 200.0 mg/kg/injection, schedule: Q01DX009 (ip), vehicle: Klucel (hydroxypropylcellulose) (HPC)

Measured: T/C

COc1cccc2c1C(=O)c1c(O)c3c(c(O)c1C2=O)C[C@@](O)(C(C)=O)C[C@@H]3OC1CC(N2CCCCC2)C(O)C(C)O1 (some centres not stated)
active: dose: 6.25 mg/kg/injection, schedule: Q04DX003 (ip), vehicle: distilled water + Tween-80 191 % of control | dose: 6.25 mg/kg/injection, schedule: Q04DX003 (ip), vehicle: water 163 % of control
inactive: dose: 1.56 mg/kg/injection, schedule: Q04DX003 (ip), vehicle: water 111 % of control | dose: 12.5 mg/kg/injection, schedule: Q04DX003 (ip), vehicle: distilled water + Tween-80 106 % of control | dose: 12.5 mg/kg/injection, schedule: Q04DX003 (ip), vehicle: water 111 % of control | dose: 25.0 mg/kg/injection, schedule: Q04DX003 (ip), vehicle: distilled water + Tween-80 99 % of control

CC1(C)N=C(N)N=C(N)N1c1ccc(OCc2ccc(C(=O)Nc3cccc(S(=O)(=O)F)c3)cc2)c(Cl)c1
active: dose: 50.0 mg/kg/injection, schedule: Q04DX003 (ip), vehicle: saline 181 % of control
inactive: dose: 100.0 mg/kg/injection, schedule: Q04DX003 (ip), vehicle: saline 86 % of control

CCOC(=O)Cc1cc2c(cc1C)CN=C(OCC)C2
inactive: dose: 6.25 mg/kg/injection, schedule: Q01DX009 (ip), vehicle: distilled water + Tween-80 100 % of control | dose: 12.5 mg/kg/injection, schedule: Q01DX009 (ip), vehicle: distilled water + Tween-80 103 % of control | dose: 25.0 mg/kg/injection, schedule: Q01DX009 (ip), vehicle: distilled water + Tween-80 94 % of control | dose: 50.0 mg/kg/injection, schedule: Q01DX009 (ip), vehicle: distilled water + Tween-80 91 % of control | dose: 100.0 mg/kg/injection, schedule: Q01DX009 (ip), vehicle: distilled water + Tween-80 91 % of control | dose: 200.0 mg/kg/injection, schedule: Q01DX009 (ip), vehicle: distilled water + Tween-80 90 % of control | dose: 400.0 mg/kg/injection, schedule: Q01DX009 (ip), vehicle: distilled water + Tween-80 100 % of control

Cc1ccc2c(c1)C(=O)N(CC[P+](c1ccccc1)(c1ccccc1)c1ccccc1)C2=O
inactive: dose: 0.78 mg/kg/injection, schedule: Q01DX009 (ip), vehicle: water 100 % of control and 113 % of control | dose: 1.56 mg/kg/injection, schedule: Q01DX009 (ip), vehicle: water 117 % of control and 120 % of control | dose: 3.13 mg/kg/injection, schedule: Q01DX009 (ip), vehicle: water 121 % of control | dose: 12.5 mg/kg/injection, schedule: Q01DX009 (ip), vehicle: water 118 % of control

CC1(C)C(=O)C(/C=C\c2ccccc2[N+](=O)[O-])Cc2ccccc21 (configuration not stated)
inactive: [1] 100 % of control | [2] 99 % of control | [3] 100 % of control

CCOC(=O)C1=Nc2cccc3c(O)ccc1c23
inactive: dose: 50.0 mg/kg/injection, schedule: Q01DX005 (ip), vehicle: saline with Tween-80 113 % of control | [4] 109 % of control | dose: 200.0 mg/kg/injection, schedule: Q01DX005 (ip), vehicle: saline with Tween-80 111 % of control

COC(=O)CN1C(=O)c2cccc3cc(N)cc(c23)C1=O
inactive: [4] 87 % of control

COC(=O)c1ccc2c(c1)C(NC(C)=O)CCc1cc(OC)c(OC)c(OC)c1-2 (configuration not stated)
inactive: dose: 0.25 mg/kg/injection, schedule: Q01DX005 (ip), vehicle: saline 106 % of control | dose: 0.5 mg/kg/injection, schedule: Q01DX005 (ip), vehicle: saline 99 % of control | dose: 1.0 mg/kg/injection, schedule: Q01DX005 (ip), vehicle: saline 101 % of control | dose: 2.0 mg/kg/injection, schedule: Q01DX005 (ip), vehicle: saline 106 % of control | dose: 4.0 mg/kg/injection, schedule: Q01DX005 (ip), vehicle: saline 114 % of control

CC1C(O)CC23COC(=O)C2=CCCC3C1(C)CCC1=CC(=O)OC1 (configuration not stated)
inactive: dose: 8.75 mg/kg/injection, schedule: Q01DX005 (ip), vehicle: Klucel (hydroxypropylcellulose) (HPC) 101 % of control | dose: 17.5 mg/kg/injection, schedule: Q01DX005 (ip), vehicle: Klucel (hydroxypropylcellulose) (HPC) 106 % of control | dose: 35.0 mg/kg/injection, schedule: Q01DX005 (ip), vehicle: Klucel (hydroxypropylcellulose) (HPC) 92 % of control | dose: 70.0 mg/kg/injection, schedule: Q01DX005 (ip), vehicle: Klucel (hydroxypropylcellulose) (HPC) 97 % of control

O=S(=O)(O)SCCNCCCCC1CCCCC1
inactive: dose: 3.75 mg/kg/injection, schedule: Q01DX005 (ip), vehicle: saline with Tween-80 99 % of control | dose: 7.5 mg/kg/injection, schedule: Q01DX005 (ip), vehicle: saline with Tween-80 90 % of control | dose: 15.0 mg/kg/injection, schedule: Q01DX005 (ip), vehicle: saline with Tween-80 101 % of control and 104 % of control | dose: 30.0 mg/kg/injection, schedule: Q01DX005 (ip), vehicle: saline with Tween-80 111 % of control | [5] 120 % of control

CCOC(=O)C(CSC(c1ccccc1)(c1ccccc1)c1ccccc1)NC(=O)CCNC(=O)c1ccccc1 (configuration not stated)
inactive: dose: 4.0 mg/kg/injection, schedule: Q01DX009 (ip), vehicle: other 96 % of control | dose: 8.0 mg/kg/injection, schedule: Q01DX009 (ip), vehicle: other 112 % of control | dose: 16.0 mg/kg/injection, schedule: Q01DX009 (ip), vehicle: other 101 % of control | dose: 32.0 mg/kg/injection, schedule: Q01DX009 (ip), vehicle: other 96 % of control | dose: 50.0 mg/kg/injection, schedule: Q01DX009 (ip), vehicle: other 104 % of control | dose: 64.0 mg/kg/injection, schedule: Q01DX009 (ip), vehicle: other 98 % of control | dose: 100.0 mg/kg/injection, schedule: Q01DX009 (ip), vehicle: other 95 % of control | dose: 200.0 mg/kg/injection, schedule: Q01DX009 (ip), vehicle: other 90 % of control | dose: 400.0 mg/kg/injection, schedule: Q01DX009 (ip), vehicle: other 95 % of control

O=C(O)C1CSC(c2ccc(O)cc2)N1 (configuration not stated)
inactive: [6] 87 % of control | [7] 88 % of control | [8] 90 % of control

COC1=CC(=O)OC(/C=C/c2ccccc2)(OC)C1=O (configuration not stated)
inactive: [5] 102 % of control | [9] 110 % of control | [10] 101 % of control

CCC(=O)Oc1ccccc1C
inactive: dose: 12.5 mg/kg/injection, schedule: Q04DX003 (ip), vehicle: saline with Tween-80 103 % of control | dose: 25.0 mg/kg/injection, schedule: Q04DX003 (ip), vehicle: saline with Tween-80 105 % of control | dose: 50.0 mg/kg/injection, schedule: Q04DX003 (ip), vehicle: saline with Tween-80 103 % of control | [11] 103 % of control

c1cn[nH]c1
inactive: dose: 25.0 mg/kg/injection, schedule: Q01DX009 (ip), vehicle: saline 93 % of control | [6] 101 % of control | [7] 111 % of control

CCCCOP(O)(=S)OCCCC.[Fe]
inactive: dose: 50.0 mg/kg/injection, schedule: Q01DX001 (ip), vehicle: Klucel (hydroxypropylcellulose) (HPC) 102 % of control | [1] 102 % of control | [2] 101 % of control

CNCCCCCc1cc(-c2ccc([N+](=O)[O-])cc2)on1
inactive: [11] 95 % of control | dose: 200.0 mg/kg/injection, schedule: Q04DX003 (ip), vehicle: saline with Tween-80 100 % of control

CC(=O)C1C(=O)C(=O)N(c2cc(C)ccc2O)C1=O (configuration not stated)
inactive: [12] 106 % of control | [13] 107 % of control | [14] 104 % of control

CC(=O)N=c1sccn1CC(O)c1ccccc1 (configuration not stated)
inactive: [12] 105 % of control | [13] 99 % of control | [2] 118 % of control | [14] 108 % of control | [3] 100 % of control

Clc1ccc(N2CCOCC2)nn1
inactive: [6] 104 % of control | [7] 88 % of control | [8] 100 % of control

O=S1(=O)CCN(c2ccccc2)CC1
inactive: [6] 96 % of control | [7] 98 % of control | [8] 95 % of control

CNCS(=O)(=O)O
inactive: [6] 106 % of control | [7] 101 % of control | [8] 93 % of control

O=C1C2=C(Nc3cc(Cl)ccc3N2)OC1c1c[nH]c2ccc(COc3ccccc3)cc12 (configuration not stated)
inactive: [5] 93 % of control | [9] 93 % of control | [10] 89 % of control
